From patent US9452997B2, “Piperidine and piperazine derivatives as autotaxin inhibitors” (Merck Patent GmbH, priority 2009, dated 2016)

biological target: T1, Recombinant autotaxin (Homo sapiens, UniProt Q13822); assay: Autotaxin assay (Amplex Red, LPC substrate); format: biochemical; conditions: % of control at 1E−05 (compound concentration); uninhibited control = 100%
T1 construct: made in house; host or cells: Hi5 insect cells (baculovirus)
Method: Autotaxin activity is measured indirectly by means of Amplex Red Reagent. In this course, Amplex Red is measured as fluorogenic indicator for generated H2O2. Autotaxin converts substrate lysophosphatidylcholine (LPC) to phosphocholine and lysophosphatidylic acid (LPA). After the conversion phosphocholine is reacted with alkaline phosphatase to obtain inorganic phosphate and choline. During the next step choline is oxidized with choline oxidase to yield betaine, whereby H2O2 is generated. H2O2 reacts with Amplex Red Reagent in the presence of peroxidase (Horseradish peroxidase) in an 1:1 stochiometry and yields highly fluorescent resorufin. The generated fluorescence is measured in a reaction-dependent kinetic mode in order to enable subtraction of fluorescence signals of possible other fluorescent compounds that are not part of the reaction from total measured fluorescence.
1.5 μl of a standard solution or of the compounds of the invention are dissolved in 20 mM Hepes pH 7.2 with maximally 7.7% DMSO in individual concentrations. The resulting solution is pre-incubated together with 10 μl (16 ng) of highly purified recombinant autotaxin in a black 384-hole microtiter plate for 30 min at 22° C.
Thereafter, the reaction is started through the addition of 5 μL-a-lysophosphatidyl-choline (LPC), whereby the final concentration of LPC is 75 μM. The mixture is incubated for 90 min. at 37° C. After the incubation Amplex Red Reagent, peroxidase (Horseradish peroxidase) and choline oxidase are added. The fluorescence is immediately measured at a wavelength of 612 nm with an excitation wavelength of 485 nm in a “Tecan Ultra multimode” fluorescence reader. The activity of autotaxin is indirectly calculated via the amount of detected generated H2O2.
For IC50 analysis, ten serial 1:3 dilutions starting at 30 μM for each compound were run in duplicates.
IC50 values were calculated on normalized data. For normalization, control wells were added to each assay plate and the signal of uninhibited control wells was set to 100%, whereas the signal inhibited by 500 μM C14 LPA, (Avanti Polar Lipids, Cat#857120P) was set to 0%. Curves were fitted and IC50 values calculated by the following model using proprietory analysis software: Y=Bottom+(100−Bottom)/(1+10^((Log IC50−X)*HillSlope)) Where X is the logarithm of concentration. Y is the response; Y starts at Bottom and goes to Top with a sigmoid shape. Material
Microtiter plate: PS-Microplate, 384-hole, small volume, black Corning, Cat#3677
Protein: Recombinant autotaxin (baculoviral Hi5 expression)
Substrate: L-a-lysophosphatidyl choline (chicken egg); Avanti Polar Lipids #830071P
Standard: C14 LPA, Avanti Polar Lipids, Cat#857120P
Detection Reagent: Amplex Red Reagent; Invitrogen #A12222; dissolved in 1.923 ml of DMSO peroxidase Type VI-A (horseradish), Sigma #P6782; dissolved in 7.45 ml of test buffer, Choline Oxidase; Sigma #C5896; dissolved in 2.47 ml test buffer
Detection Reagent Mix: 1:100 dilution of Amplex Red Regent in test buffer
Test buffer: 200 mM Tris-HCl, Merck, Cat #1.08219, pH 7.9; 0.1% BSA, lipid free, Roche Cat#775835

Row | SMILES | % CTRL (1E−05) [%]
1 | O=C(Cc1ccc(C(F)(F)F)c(F)c1)N1CCN(C2CCN(C(=O)c3ccc4[nH]nnc4c3)CC2)CC1 [Compound 102, 1-{4-[1-(1H-Benzotriazole-5-carbonyl)-piperidin-4-yl]-piperazin-1-yl}-2-(3-fluoro-4-trifluoromethyl-phenyl)-ethanone] | 24

same assay, conditions: recombinant autotaxin, LPC substrate, Amplex Red detection; values given as upper bounds

Row | SMILES | IC50 [nM]
2 | O=C(OCc1ccc2c(c1)OCO2)N1CCN(C2CCN(C(=O)c3ccc4[nH]nnc4c3)CC2)CC1 [Compound 136, 4-[1-(1H-Benzotriazole-5-carbonyl)-piperidin-4-yl]-piperazine-1-carboxylic acid benzo[1,3]dioxol-5-ylmethyl ester] | < 10000
3 | O=C(c1ccc2[nH]nnc2c1)N1CCC(N2CCN(C(=O)c3nc4cc(C(F)(F)F)ccc4[nH]3)CC2)CC1 [Compound 52, (1H-Benzotriazol-5-yl)-{4-[4-(5-trifluoromethyl-1H-benzoimidazole-2-carbonyl)-piperazin-1-yl]-piperidin-1-yl}-methanone] | < 10000
4 | Cc1ccc(COC(=O)N2CCN(C3CCN(C(=O)c4ccc5[nH]nnc5c4)CC3)CC2)cc1 [Compound 40, 4-[1-(1H-Benzotriazole-5-carbonyl)-piperidin-4-yl]-piperazine-1-carboxylic acid 4-methyl-benzyl ester] | < 10000
5 | O=C(Nc1ccc2[nH]nnc2c1)c1cccc(N2CCN(C(=O)OCc3ccc(Cl)cc3)CC2)c1 [Compound 10, 4-[3-(1H-Benzotriazol-5-ylcarbamoyl)-phenyl]-piperazine-1-carboxylic acid 4-chloro-benzyl ester] | < 30000
6 | O=C(NC1CCC(N2CCN(C(=O)OCc3ccc(C(F)(F)F)c(F)c3)CC2)CC1)c1ccc2[nH]nnc2c1 (centres unmarked) [Compound 189, 4-{4-[(1H-Benzotriazole-5-carbonyl)-amino]-cyclohexyl}-piperazine-1-carboxylic acid 3-fluoro-4-trifluoromethyl-benzyl ester] | < 10000
7 | O=C(NC1CCC(N2CCN(C(=O)OCc3cc(Cl)cc(C(F)(F)F)c3)CC2)CC1)c1ccc2[nH]nnc2c1 (centres unmarked) [Compound 187, 4-{4-[(1H-Benzotriazole-5-carbonyl)-amino]-cyclohexyl}-piperazine-1-carboxylic acid 3-chloro-5-trifluoromethyl-benzyl ester] | < 1000
8 | O=C(OCc1ccc(Cl)c(Cl)c1)N1CCN(C2CCN(C(=O)c3ccc4[nH]nnc4c3)CC2)CC1 [Compound 45, 4-[1-(1H-Benzotriazole-5-carbonyl)-piperidin-4-yl]-piperazine-1-carboxylic acid 3,4-dichloro-benzyl ester] | < 1000
9 | O=C(CCc1ccccc1O)N1CCC(N2CCN(C(=O)c3ccccc3-c3cccc(C(F)(F)F)c3)CC2)CC1 [Compound 21, 3-(2-Hydroxy-phenyl)-1-{4-[4-(3′-trifluoromethyl-biphenyl-2-carbonyl)-piperazin-1-yl]-piperidin-1-yl}-propan-1-one] | < 1000
10 | O=C(Nc1ccc2[nH]c(=O)oc2c1)C1CC(=O)N(C2CCN(C(=O)OCc3cc(Cl)cc(Cl)c3)CC2)C1 (centres unmarked) [Compound 15, 4-[2-Oxo-4-(2-oxo-2,3-dihydro-benzooxazol-6-ylcarbamoyl)-pyrrolidin-1-yl]-piperidine-1-carboxylic acid 3,5-dichloro-benzyl ester] | < 1000
11 | O=C(OCc1c(F)cc(Br)cc1F)N1CCN(C2CCN(C(=O)c3ccc4[nH]nnc4c3)CC2)CC1 [Compound 157, 4-[1-(1H-Benzotriazole-5-carbonyl)-piperidin-4-yl]-piperazine-1-carboxylic acid 4-bromo-2,6-difluoro-benzyl ester] | < 10000
12 | O=C(OCc1ccc(SC(F)(F)F)cc1)N1CCC(N2CCN(C(=O)c3ccc4[nH]nnc4c3)CC2)CC1 [Compound 86, 4-[4-(1H-Benzotriazole-5-carbonyl)-piperazin-1-yl]-piperidine-1-carboxylic acid 4-trifluoromethylsulfanyl-benzyl ester] | < 1000
13 | O=C(CC(=O)N1CCC(N2CCN(C(=O)c3ccc4[nH]nnc4c3)CC2)CC1)c1ccc(C(F)(F)F)cc1 [Compound 164, 1-{4-[4-(1H-Benzotriazole-5-carbonyl)-piperazin-1-yl]-piperidin-1-yl}-3-(4-trifluoromethyl-phenyl)-propane-1,3-dione] | < 10000

The next lines start with the values.

Row | IC50 [nM] | SMILES
14 | < 1000 | O=C(OCc1ccc(C(F)(F)F)cc1)N1CCC(N2CCN(C(=O)c3ccc4[nH]nnc4c3)CC2)CC1 [Compound 71, 4-[4-(1H-Benzotriazole-5 carbonyl)-piperazin-1-yl]-piperidine-1-carboxylic acid 4-trifluoromethyl-benzyl ester]
15 | < 1000 | O=C(OCc1cc(Cl)cc(Cl)c1)N1CCC(NC2CCN(C(=O)c3ccc4[nH]nnc4c3)CC2)C1 (centres unmarked) [Compound 51, 3-[1-(1H-Benzotriazole-5-carbonyl)-piperidin-4-ylamino]-pyrrolidine-1-carboxylic acid 3,5-dichloro-benzyl ester]
16 | < 1000 | O=C(OCc1cccc(Cl)c1)N1CCN(C2CCN(C(=O)c3ccc4[nH]nnc4c3)CC2)CC1 [Compound 41, 4-[1-(1H-Benzotriazole-5-carbonyl)-piperidin-4-yl]-piperazine-1-carboxylic acid 3-chloro-benzyl ester]
17 | < 1000 | O=C(NC1CCN(C2CCN(C(=O)OCc3cc(Cl)cc(Cl)c3)CC2)C1)c1ccc2[nH]nnc2c1 (centres unmarked) [Compound 9, 4-{3-[(1H-Benzotriazole-5-carbonyl)-amino]-pyrrolidin-1-yl}-piperidine-1-carboxylic acid 3,5-dichloro-benzyl ester]
18 | < 1000 | O=C(OCc1cc(F)c(F)c(F)c1)N1CCC(N2CCN(C(=O)c3ccc4[nH]nnc4c3)CC2)CC1 [Compound 79, 4-[4-(1H-Benzotriazole-5-carbonyl)-piperazin-1-yl]-piperidine-1-carboxylic acid 3,4,5-trifluoro-benzyl ester]
19 | < 1000 | O=C(OCc1ccc(OC(F)(F)F)c(Cl)c1)N1CCC(N2CCN(C(=O)c3ccc4[nH]nnc4c3)CC2)CC1 [Compound 143, 4-[4-(1H-Benzotriazole-5-carbonyl)-piperazin-1-yl]-piperidine-1-carboxylic acid 3-chloro-4-trifluoromethoxy-benzyl ester]
20 | < 1000 | O=C(Nc1ccc2[nH]nnc2c1)C1CC(=O)N(C2CCN(C(=O)OCc3ccc(Cl)cc3)CC2)C1 (centres unmarked) [Compound 2, 4-[4-(1H-Benzotriazol-5-ylcarbamoyl)-2-oxo-pyrrolidin-1-yl]-piperidine-1-carboxylic acid 4-chloro-benzyl ester]
21 | < 1000 | O=C(OCc1ccc(Br)cc1)N1CCN(C2CCN(C(=O)c3ccc4[nH]nnc4c3)CC2)CC1 [Compound 155, 4-[1-(1H-Benzotriazole-5-carbonyl)-piperidin-4-yl]-piperazine-1-carboxylic acid 4-bromo-benzyl ester]
22 | < 1000 | CC(C)c1ccc(CCC(=O)N2CCC(N3CCN(C(=O)c4ccc5[nH]nnc5c4)CC3)CC2)cc1 [Compound 84, 1-{4-[4-(1H-Benzotriazole-5-carbonyl)-piperazin-1-yl]-piperidin-1-yl}-3-(4-isopropyl-phenyl)-propan-1-one]
23 | < 1000 | O=C(OCc1ccc(OC(F)(F)F)c(Cl)c1)N1CCN(C2CCN(C(=O)c3ccc4[nH]nnc4c3)CC2)CC1 [Compound 101, 4-[1-(1H-Benzotriazole-5-carbonyl)-piperidin-4-yl]-piperazine-1-carboxylic acid 3-chloro-4-trifluoromethoxy-benzyl ester]
